# Data reported in PubChem BioAssay AID2060497 (Molecular Pharmacology Branch, DTP, NCI, 2025).
# Test system: 317291-083-R-J1-PDC complex spheroids, viability
# Assay: Anticancer human tumor 317291-083-R-J1-PDC patient-derived soft tissue sarcoma cell line growth inhibition [GQUAD]
# Conditions: for IC50: curve of first compound; for viability, T/C: stronger effect = lower value
# In short: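 Tumor cells were grown as complex spheroids with HUVEC endothelial cells and mesenchymal stem cells as stroma. G-quadruplex stabilizers were combined with targeted agents over half-log dilutions from near the clinical Cmax, or from 10 microM.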
# [1] = second compound 0.0316 µM, first compound 0.0316 µM
# [2] = second compound 0.0316 µM, first compound 0.1 µM
# [3] = second compound 0.0316 µM, first compound 0.316 µM
# [4] = second compound 0.0316 µM, first compound 1 µM
# [5] = second compound 0.0316 µM, first compound 3.16 µM
# [6] = second compound 0.0316 µM, first compound 10 µM
# [7] = second compound 0.1 µM, first compound 0.0316 µM
# [8] = second compound 0.1 µM, first compound 0.1 µM
# [9] = second compound 0.1 µM, first compound 0.316 µM
# [10] = second compound 0.1 µM, first compound 1 µM
# [11] = second compound 0.1 µM, first compound 3.16 µM
# [12] = second compound 0.1 µM, first compound 10 µM
# [13] = second compound 0.316 µM, first compound 0.0316 µM
# [14] = second compound 0.316 µM, first compound 0.1 µM
# [15] = second compound 0.316 µM, first compound 0.316 µM
# [16] = second compound 0.316 µM, first compound 1 µM
# [17] = second compound 0.316 µM, first compound 3.16 µM
# [18] = second compound 0.316 µM, first compound 10 µM
# [19] = second compound 1 µM, first compound 0.0316 µM
# [20] = second compound 1 µM, first compound 0.1 µM
# [21] = second compound 1 µM, first compound 0.316 µM
# [22] = second compound 1 µM, first compound 1 µM
# [23] = second compound 1 µM, first compound 3.16 µM
# [24] = second compound 1 µM, first compound 10 µM
# [25] = second compound 3.16 µM, first compound 0.0316 µM
# [26] = second compound 3.16 µM, first compound 0.1 µM
# [27] = second compound 3.16 µM, first compound 0.316 µM
# [28] = second compound 3.16 µM, first compound 1 µM
# [29] = second compound 3.16 µM, first compound 3.16 µM
# [30] = second compound 3.16 µM, first compound 10 µM
# [31] = second compound 10 µM, first compound 0.0316 µM
# [32] = second compound 10 µM, first compound 0.1 µM
# [33] = second compound 10 µM, first compound 0.316 µM
# [34] = second compound 10 µM, first compound 1 µM
# [35] = second compound 10 µM, first compound 3.16 µM
# [36] = second compound 10 µM, first compound 10 µM
# 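Also: spheroids exposed to compounds for one week before readout.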
# 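For viability, T/C in this document: percent viability relative to DMSO vehicle wells taken as 100%.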
compound,measurement,setting,value
Cc1cccc(N(C)C(=O)C2C(O)CCN2c2nc(C)cc(C(F)(F)F)c2C#N)c1 (stereo unspecified) + Cc1cnc(CNC(=O)c2c(=O)c3ccc(N4CCCN(C)CC4)nc3n3c2sc2ccccc23)cn1,IC50,second compound 0.0316 µM,> 10000 nM
same,IC50,second compound 0.1 µM,> 10000 nM
same,IC50,second compound 0.316 µM,4450 nM
same,IC50,second compound 1 µM,< 31.6 nM
same,IC50,second compound 3.16 µM,< 31.6 nM
same,IC50,second compound 10 µM,< 31.6 nM
same,"viability, T/C",[1],118%
same,"viability, T/C",[2],81.9%
same,"viability, T/C",[3],89.3%
same,"viability, T/C",[4],84.5%
same,"viability, T/C",[5],85.2%
same,"viability, T/C",[6],80.2%
same,"viability, T/C",[7],78.7%
same,"viability, T/C",[8],58.7%
same,"viability, T/C",[9],62.3%
same,"viability, T/C",[10],74%
same,"viability, T/C",[11],56%
same,"viability, T/C",[12],61.2%
same,"viability, T/C",[13],41.6%
same,"viability, T/C",[14],83.8%
same,"viability, T/C",[15],48%
same,"viability, T/C",[16],43.2%
same,"viability, T/C",[17],64%
same,"viability, T/C",[18],35.5%
same,"viability, T/C",[19],38.2%
same,"viability, T/C",[20],29.7%
same,"viability, T/C",[21],37.7%
same,"viability, T/C",[22],28.5%
same,"viability, T/C",[23],37.9%
same,"viability, T/C",[24],30.1%
same,"viability, T/C",[25],25.4%
same,"viability, T/C",[26],22.3%
same,"viability, T/C",[27],16.1%
same,"viability, T/C",[28],18.2%
same,"viability, T/C",[29],28.9%
same,"viability, T/C",[30],33.5%
same,"viability, T/C",[31],33.2%
same,"viability, T/C",[32],35.5%
same,"viability, T/C",[33],24.4%
same,"viability, T/C",[34],42.2%
same,"viability, T/C",[35],28.8%
same,"viability, T/C",[36],52.6%
Cn1ncnc1[C@H]1c2n[nH]c(=O)c3cc(F)cc(c23)N[C@@H]1c1ccc(F)cc1 + Cc1cnc(CNC(=O)c2c(=O)c3ccc(N4CCCN(C)CC4)nc3n3c2sc2ccccc23)cn1,IC50,second compound 0.0316 µM,246 nM
same,IC50,second compound 0.1 µM,24.2 nM
same,IC50,second compound 0.316 µM,< 0.999 nM
same,IC50,second compound 1 µM,< 0.999 nM
same,IC50,second compound 3.16 µM,< 0.999 nM
same,IC50,second compound 10 µM,< 0.999 nM
same,"viability, T/C","second compound 0.0316 µM, first compound 0.000999 µM",88.6%
same,"viability, T/C","second compound 0.0316 µM, first compound 0.00316 µM",106%
same,"viability, T/C","second compound 0.0316 µM, first compound 0.00999 µM",75.6%
same,"viability, T/C",[1],74%
same,"viability, T/C","second compound 0.0316 µM, first compound 0.0999 µM",59.8%
same,"viability, T/C",[3],46.8%
same,"viability, T/C","second compound 0.1 µM, first compound 0.000999 µM",73.8%
same,"viability, T/C","second compound 0.1 µM, first compound 0.00316 µM",74.7%
same,"viability, T/C","second compound 0.1 µM, first compound 0.00999 µM",49.7%
same,"viability, T/C",[7],50.4%
same,"viability, T/C","second compound 0.1 µM, first compound 0.0999 µM",37.9%
same,"viability, T/C",[9],25.3%
same,"viability, T/C","second compound 0.316 µM, first compound 0.000999 µM",46.1%
same,"viability, T/C","second compound 0.316 µM, first compound 0.00316 µM",42.7%
same,"viability, T/C","second compound 0.316 µM, first compound 0.00999 µM",41.2%
same,"viability, T/C",[13],25.5%
same,"viability, T/C","second compound 0.316 µM, first compound 0.0999 µM",36.7%
same,"viability, T/C",[15],24.2%
same,"viability, T/C","second compound 1 µM, first compound 0.000999 µM",32.2%
same,"viability, T/C","second compound 1 µM, first compound 0.00316 µM",35.5%
same,"viability, T/C","second compound 1 µM, first compound 0.00999 µM",31.4%
same,"viability, T/C",[19],21.1%
same,"viability, T/C","second compound 1 µM, first compound 0.0999 µM",24.3%
same,"viability, T/C",[21],23.9%
same,"viability, T/C","second compound 3.16 µM, first compound 0.000999 µM",17.3%
same,"viability, T/C","second compound 3.16 µM, first compound 0.00316 µM",13.4%
same,"viability, T/C","second compound 3.16 µM, first compound 0.00999 µM",16.9%
same,"viability, T/C",[25],17.2%
same,"viability, T/C","second compound 3.16 µM, first compound 0.0999 µM",20.3%
same,"viability, T/C",[27],12.7%
same,"viability, T/C","second compound 10 µM, first compound 0.000999 µM",41%
same,"viability, T/C","second compound 10 µM, first compound 0.00316 µM",35.4%
same,"viability, T/C","second compound 10 µM, first compound 0.00999 µM",25.4%
same,"viability, T/C",[31],34.6%
same,"viability, T/C","second compound 10 µM, first compound 0.0999 µM",29.9%
same,"viability, T/C",[33],25.4%
O=C(c1cc(Cc2n[nH]c(=O)c3ccccc23)ccc1F)N1CCN(C(=O)C2CC2)CC1 + Cc1cnc(CNC(=O)c2c(=O)c3ccc(N4CCCN(C)CC4)nc3n3c2sc2ccccc23)cn1,IC50,second compound 0.0316 µM,> 10000 nM
same,IC50,second compound 0.1 µM,2170 nM
same,IC50,second compound 0.316 µM,< 31.6 nM
same,IC50,second compound 1 µM,< 31.6 nM
same,IC50,second compound 3.16 µM,< 31.6 nM
same,IC50,second compound 10 µM,< 31.6 nM
same,"viability, T/C",[1],101%
same,"viability, T/C",[2],92.4%
same,"viability, T/C",[3],89.7%
same,"viability, T/C",[4],77.5%
same,"viability, T/C",[5],67.7%
same,"viability, T/C",[6],59.3%
same,"viability, T/C",[7],88.3%
same,"viability, T/C",[8],72.7%
same,"viability, T/C",[9],64.5%
same,"viability, T/C",[10],57.6%
same,"viability, T/C",[11],53.3%
same,"viability, T/C",[12],31.2%
same,"viability, T/C",[13],44.7%
same,"viability, T/C",[14],43.4%
same,"viability, T/C",[15],57.1%
same,"viability, T/C",[16],33.8%
same,"viability, T/C",[17],39.2%
same,"viability, T/C",[18],46%
same,"viability, T/C",[19],30%
same,"viability, T/C",[20],38.5%
same,"viability, T/C",[21],51.5%
same,"viability, T/C",[22],26.6%
same,"viability, T/C",[23],24.2%
same,"viability, T/C",[24],19.6%
same,"viability, T/C",[25],17.2%
same,"viability, T/C",[26],14.6%
same,"viability, T/C",[27],64.8%
same,"viability, T/C",[28],39.8%
same,"viability, T/C",[29],32.8%
same,"viability, T/C",[30],14.8%
same,"viability, T/C",[31],31.1%
same,"viability, T/C",[32],16.8%
same,"viability, T/C",[33],19.1%
same,"viability, T/C",[34],36.2%
same,"viability, T/C",[35],20.5%
same,"viability, T/C",[36],15.2%
